From PubChem BioAssay AID624129 (Sanford-Burnham Center for Chemical Genomics, 2012) come the findings set out here.

The structures appear in SMILES notation. Calls of active or inactive are those of the source. How the calls were made is not given here.

Experiment in all cases: potency against CXCR6 with APJ panel – cell-based, beta-arrestin, DiscoveRx, uHTS hits, dose response (AID 624129)
The target of assay [1] is Beta-galactosidase (Escherichia coli) (UniProt Q8VNN2). Particulars: CXCR6 beta-arrestin (DiscoveRx) antagonist cell assay, b-galactosidase.
Assay [2] deals with C-X-C chemokine receptor type 6 (Homo sapiens) (UniProt O00574). To be noted: CXCR6 beta-arrestin (DiscoveRx) antagonist cell assay; for inhibition: CXCR6, run 1, dose range 2, at 80 µM (top of the series).
For assay [3], the target named is C-C chemokine receptor type 6 (Homo sapiens) (UniProt P51684). To be noted: CXCR6 beta-arrestin (DiscoveRx) antagonist cell assay.
Assay [4] addresses Apelin receptor (Homo sapiens) (UniProt P35414). To be noted: CXCR6 beta-arrestin (DiscoveRx) antagonist cell assay, APJ.
The mark [5] stands for this setting: dose range 1, mean IC50 across replicates.
[6] abbreviates: CXCR6, dose range 1, mean IC50 across replicates.
The mark [7] stands for this setting: CCR6, dose range 1, mean IC50 across replicates.

Chain of C-X-C chemokine receptor type 6 (Homo sapiens) (O00574 whole entry, looked up): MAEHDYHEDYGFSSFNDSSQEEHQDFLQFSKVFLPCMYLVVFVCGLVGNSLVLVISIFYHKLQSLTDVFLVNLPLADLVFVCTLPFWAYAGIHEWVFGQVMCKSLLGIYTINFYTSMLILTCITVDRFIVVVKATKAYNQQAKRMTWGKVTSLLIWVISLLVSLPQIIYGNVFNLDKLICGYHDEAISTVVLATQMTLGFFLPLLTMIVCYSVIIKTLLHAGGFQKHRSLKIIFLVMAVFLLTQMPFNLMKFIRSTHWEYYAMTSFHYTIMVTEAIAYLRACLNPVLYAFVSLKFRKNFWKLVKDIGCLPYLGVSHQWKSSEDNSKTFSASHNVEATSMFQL
Chain of Beta-galactosidase (Escherichia coli) (Q8VNN2 whole entry, looked up): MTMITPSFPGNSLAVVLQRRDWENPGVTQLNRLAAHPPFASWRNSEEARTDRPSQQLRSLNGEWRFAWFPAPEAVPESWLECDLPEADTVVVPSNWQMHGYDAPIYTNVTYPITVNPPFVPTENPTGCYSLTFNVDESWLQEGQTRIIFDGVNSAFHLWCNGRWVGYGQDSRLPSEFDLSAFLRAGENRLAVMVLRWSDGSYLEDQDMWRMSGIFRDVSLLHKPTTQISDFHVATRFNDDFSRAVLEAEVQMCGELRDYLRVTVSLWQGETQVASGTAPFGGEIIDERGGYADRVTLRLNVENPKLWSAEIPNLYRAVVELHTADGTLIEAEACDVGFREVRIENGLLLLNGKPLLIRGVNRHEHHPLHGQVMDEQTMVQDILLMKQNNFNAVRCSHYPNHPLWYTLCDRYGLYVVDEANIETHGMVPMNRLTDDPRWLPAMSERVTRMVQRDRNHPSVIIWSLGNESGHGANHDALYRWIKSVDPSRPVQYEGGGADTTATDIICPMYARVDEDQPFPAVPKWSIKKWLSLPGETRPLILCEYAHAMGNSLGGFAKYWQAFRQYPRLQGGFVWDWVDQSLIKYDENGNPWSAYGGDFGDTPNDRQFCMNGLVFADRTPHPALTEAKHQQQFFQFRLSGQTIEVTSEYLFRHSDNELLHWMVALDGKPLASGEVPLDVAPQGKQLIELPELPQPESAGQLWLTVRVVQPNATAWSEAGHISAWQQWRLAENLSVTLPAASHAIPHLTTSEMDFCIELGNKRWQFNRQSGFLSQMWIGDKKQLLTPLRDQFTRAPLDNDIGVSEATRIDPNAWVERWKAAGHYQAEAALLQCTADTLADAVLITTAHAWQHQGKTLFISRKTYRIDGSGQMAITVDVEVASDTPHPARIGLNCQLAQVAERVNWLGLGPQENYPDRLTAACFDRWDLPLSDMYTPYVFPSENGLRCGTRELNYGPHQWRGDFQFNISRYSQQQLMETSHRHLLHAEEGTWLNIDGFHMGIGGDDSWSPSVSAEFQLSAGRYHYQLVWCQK

Regarding `Cc1cc(S(=O)(=O)c2ccc(Cl)cc2)nc(S(=O)(=O)c2ccc(Cl)cc2)c1C#N`, the IC50 result in assay [1] (dose range 1) was “inactive”; in assay [2] (CXCR6, dose range 1), “inactive”. Moreover, the IC50 in assay [1] (setting [5]) was 50.1 µM; in assay [2] (setting [6]), 18.3 µM; in assay [2] (CXCR6, run 2, dose range 1), 8.04 µM; in assay [3] (setting [7]) it was 30.5 µM; in assay [3] (CCR6, run 2, dose range 1), 30.5 µM; in assay [4] (dose range 1), 22.9 µM. For the same molecule, the IC50 in assay [4] (setting [5]) was found to be 37 µM; in assay [4] (run 2, dose range 1), 31.3 µM; in assay [4] (run 3, dose range 1), 56.9 µM. The inhibition in assay [2] came out at 93.1%.

`COC(=O)[C@@H]1[C@@H](C#N)C2(c3ccccc3-c3ccccc32)N(c2ccc(Cl)cc2)N1C#N`: the IC50 in assay [1] (dose range 1) is > 80 µM (inactive); in assay [1] (setting [5]), over 80 µM; in assay [2] (CXCR6, dose range 1) it was > 80 µM (inactive); in assay [2] (setting [6]), over 80 µM; in assay [2] (CXCR6, run 2, dose range 1), over 80 µM; in assay [3] (setting [7]), over 80 µM. Further, the IC50 in assay [3] (CCR6, run 2, dose range 1) is over 80 µM; in assay [4] (setting [5]) it was over 80 µM; in assay [4] (run 2, dose range 1), over 80 µM; in assay [4] (run 3, dose range 1) it was over 80 µM. Further, in assay [2], the inhibition was 11.1%.

In the case of `N#CC(C#N)=C1C=CC=CN1/C(=C\c1ccccc1Cl)C(=O)c1ccccc1`, the IC50 in assay [1] (dose range 1) is > 80 µM (inactive); in assay [1] (setting [5]) it was over 80 µM; in assay [2] (CXCR6, dose range 1), 7.69 µM; in assay [2] (setting [6]), 9.06 µM; in assay [2] (CXCR6, run 1, dose range 2) it was 9.82 µM; in assay [2] (CXCR6, run 2, dose range 1), 7.88 µM. For the same molecule, the IC50 in assay [2] (CXCR6, run 2, dose range 2) is 10.8 µM; in assay [3] (CCR6, dose range 1), 7.75 µM; in assay [3] (setting [7]), 6.75 µM; in assay [3] (CCR6, run 2, dose range 1), 5.76 µM; in assay [4] (dose range 1), 14.4 µM; in assay [4] (setting [5]) it was 14.5 µM. Besides, the IC50 in assay [4] (run 2, dose range 1) was found to be 11.7 µM; in assay [4] (run 3, dose range 1) it was 17.5 µM.

Regarding `N#CC(C#N)=C1C=CC=CN1/C(=C\c1ccco1)C(=O)c1ccccc1`, the IC50 was > 80 µM (inactive) in assay [1] (dose range 1); over 80 µM in assay [1] (setting [5]); 3.57 µM in assay [2] (CXCR6, dose range 1); 3.74 µM in assay [2] (setting [6]); 3.95 µM in assay [2] (CXCR6, run 1, dose range 2); 3.64 µM in assay [2] (CXCR6, run 2, dose range 1). Besides, the 50% inhibitory concentration (IC50) in assay [2] (CXCR6, run 2, dose range 2) is 3.79 µM; in assay [3] (CCR6, dose range 1) it was 2.91 µM; in assay [3] (setting [7]), 2.95 µM; in assay [3] (CCR6, run 2, dose range 1) it was 2.99 µM; in assay [4] (dose range 1) it was 4.79 µM; in assay [4] (setting [5]), 3.9 µM. The IC50 amounted to 3.2 µM in assay [4] (run 2, dose range 1) and 3.71 µM in assay [4] (run 3, dose range 1).

On to `Cc1ccc(C(=O)CNc2ccc(F)cc2)cc1`, for which the IC50 was > 80 µM (inactive) in assay [1] (dose range 1); over 80 µM in assay [1] (setting [5]); 0.476 µM in assay [2] (CXCR6, dose range 1); 0.435 µM in assay [2] (setting [6]); 0.395 µM in assay [2] (CXCR6, run 2, dose range 1); 0.29 µM in assay [3] (CCR6, dose range 1). For the same molecule, the half-maximal inhibitory concentration (IC50) in assay [3] (setting [7]) was 0.271 µM; in assay [3] (CCR6, run 2, dose range 1), 0.251 µM; in assay [4] (dose range 1), 0.364 µM; in assay [4] (setting [5]) it was 0.281 µM; in assay [4] (run 2, dose range 1), 0.236 µM; in assay [4] (run 3, dose range 1), 0.242 µM. Besides, the inhibition in assay [2] amounted to 113%.

As to `COc1ccc([N+](=O)[O-])c(S(=O)(=O)c2ccc(Cl)cc2)n1`, the IC50 was > 80 µM (inactive) in assay [1] (dose range 1); over 80 µM in assay [1] (setting [5]); 51.9 µM in assay [2] (setting [6]); 61.5 µM in assay [2] (CXCR6, run 2, dose range 1); 69.3 µM in assay [3] (CCR6, dose range 1); 62.5 µM in assay [3] (setting [7]). Further, the concentration for half-maximal inhibition (IC50) in assay [3] (CCR6, run 2, dose range 1) was 55.8 µM; in assay [4] (dose range 1), 47.2 µM; in assay [4] (setting [5]) it was 49.4 µM; in assay [4] (run 2, dose range 1), 51.5 µM; in assay [4] (run 3, dose range 1) it was over 80 µM. Also, the IC50 result in assay [2] (CXCR6, dose range 1) is “inactive”. Besides, in assay [2], the inhibition turned out to be 75.8%.

Take `O=[N+]([O-])c1ccc(S(=O)Cc2ccccc2)c([N+](=O)[O-])c1` (configuration not stated): the IC50 in assay [1] (dose range 1) is > 80 µM (inactive); in assay [1] (setting [5]), over 80 µM; in assay [2] (CXCR6, dose range 1), > 80 µM (inactive); in assay [2] (setting [6]) it was over 80 µM; in assay [2] (CXCR6, run 2, dose range 1) it was over 80 µM; in assay [3] (setting [7]) it was over 80 µM. Besides, the IC50 was over 80 µM in assay [3] (CCR6, run 2, dose range 1); over 80 µM in assay [4] (setting [5]); over 80 µM in assay [4] (run 2, dose range 1); over 80 µM in assay [4] (run 3, dose range 1). The inhibition in assay [2] is -36.3%.

As to `CCCC(=O)OCCNc1cc(Sc2nccn2C)c2nonc2c1[N+](=O)[O-]`, the IC50 in assay [1] (dose range 1) is > 80 µM (inactive); in assay [1] (setting [5]), over 80 µM; in assay [2] (CXCR6, dose range 1), 4.86 µM; in assay [2] (setting [6]) it was 5.03 µM; in assay [2] (CXCR6, run 1, dose range 2), 5.61 µM; in assay [2] (CXCR6, run 2, dose range 1), 5.05 µM. The IC50 was 4.59 µM in assay [2] (CXCR6, run 2, dose range 2); 4.87 µM in assay [3] (CCR6, dose range 1); 4.62 µM in assay [3] (setting [7]); 4.38 µM in assay [3] (CCR6, run 2, dose range 1); 8.29 µM in assay [4] (dose range 1); 6.22 µM in assay [4] (setting [5]). Further, the half-maximal inhibitory concentration (IC50) in assay [4] (run 2, dose range 1) stood at 4.43 µM; in assay [4] (run 3, dose range 1) it was 5.96 µM.

The term IC50 denotes the concentration that gives 50% inhibition. In general, inhibition refers to the relative decrease from the control value, in per cent.
